Experimental data reported in patent US20120035079A1, “GENOTOXICITY TESTING” (priority 2009, published 2012).
Like-named read-outs stand apart in the source and are kept apart here.

What was measured:
[1] = tested on: human GADD45α gene promoter and regulatory element linked to Gaussia luciferase (GD532-GLuc) in TK6 cells; assay: GLuc genotoxicity assay: GLuc-T01 cells (TK6 with pEP-GD532-GLuc), 48 hour endpoint, without S9
Description: The assay has the following steps, as further described below: (1) preparing a microplate for use in an assay; (2) conducting the assay in the microplates; (3) collecting and analysing the data; and (4) making a judgment on genome damage and the consequences.
The assay is performed using a microplate reader capable of luminescence and absorbance readings, equipped with injectors capable of single well additions.
Using the standard dilution protocol described here, all concentrations are halved in the microplate well when a sample volume of 75 μl is combined with 75 μl of cell culture. All standard and test chemicals and reagents should be prepared fresh shortly before the assay is performed.
An initial concentration of 2 mM or 1 mg/ml (whichever is lowest) is recommended (equating to 1 mM or 500 μg/ml of test compound on the microplate). It is desirable that the test compound is fully soluble at the top concentration tested. A minimum of 250 μl of each test compound is required per plate. […] If the compound precipitates from solution when the DMSO standard is added to water, the original DMSO stock standard can be diluted further with 100% DMSO. The 20 μl+980 μl water dilution step is then repeated to produce a fresh test standard.
Standard cell culture methods are used to prepare GLuc-TO1 cells for use in the assay. […] Cells are grown in routine culture medium:
The following standard protocol may be followed. […] To achieve this, 150 microlitres of the test chemical solution are put into a microplate well. […] This produces 9 serial dilutions of 75 microlitres each.
75 μl of GLuc-T01 cells in Assay Medium (GS-HC-AM) as described above are then added to each well as appropriate.
The following controls are included in the microplate: • a. Blank well. • b. Test compound/sample alone. • c. Assay medium alone. • d. Control compound with cells.
Once finished, the microplates are covered with a breathable membrane. […] Plates should be incubated and analysed after 48 hours +/−2 hours.
Plates are first read for absorbance in each well, at a wavelength of ˜620 nm. […] An example of a suitable reader and injector system is a Tecan Infinite F500
Following the 48 hour incubation, luminescence and absorbance data are collected from the microplates. A microplate reader combining luminescence and absorbance functionality is used; by way of example, this reader may be a Tecan Infinite F500 (Tecan UK Ltd.). Luminescence data are collected with an integration time of 3 seconds after injection of the substrate and shaking of the microplate (within the reader). Optical absorbance is measured through a 600 nm or 620 nm filter. These luminescence and absorbance data are transported into a Microsoft Excel spreadsheet, and converted to graphical data. […] Luminescence data are divided by absorbance data to give ‘brightness units’, the measure of average GLuc induction per cell. […] In this way, one can distinguish between a small number of highly luminescent cells and a large number of weakly luminescent cells. The decision (see below), on whether or not a compound is classified as being genotoxic is generated automatically within the software.
The cytotoxicity threshold is set at 80% of the cell density reached by the untreated control cells.
Anomalous brightness data is generated when the toxicity leads to a final cell density less than 30% that of the blank. Genotoxicity data is not calculated above this toxicity threshold.
A series of genotoxicity assays were performed using a TK6 cell line having the GD532-GLuc expression cassette (a “GLuc assay”). The assays were performed using the experimental protocol provided in a later example.

[2] = tested on: GADD45α-FLuc expression cassette (GD532-L) in TK6 cells; assay: FLuc genotoxicity assay: TK6 cells with GADD45α-FLuc (GD532-L) expression cassette; conditions: for detection as genotoxic with FLuc at the 48 hour endpoint: FLuc measured 8-48 hours after treatment, FIG. 4
From the text: The reagents for the FLuc assay were originally taken from the article Wettey F R, Jackson A P. Luciferase Reporter Assay. In: Reviews and Protocols in DT40 Research. […] The reagents and their concentrations are listed below. The pH of both mixes is adjusted to pH 7.8 in order to maximise the light output from luciferase.
It was decided to directly lyse the TK6 cells in the GreenScreen HC assay medium as to pellet and wash the cells would add additional steps to the protocol and therefore increase variability into the data. […] The solution of this combined lysis and assay mix (L&A buffer) is shown below.
The final concentration listed above is the concentration of the reagents after the L&A buffer has been combined with the GreenScreen HC assay media. The final concentration of the reagents is fixed and based on the information from the Wettey and Jackson protocol. The FLuc assay as it is currently performed relies on the addition of 40 μl of L&A buffer to 120 μl of GreenScreen HC assay buffer. Therefore, the initial concentration of the reagents in the L&A buffer has to be four times greater than the desired final concentration. The L&A buffer should be pH 8.0 as when the L&A buffer is combined with the GreenScreen HC assay medium (pH 7.2) this give a final pH of ˜7.8.
The preparation of pEP-GD532-GLuc is described in the accompanying examples. Using a similar strategy the inventors also prepared plasmid pEP-GD532-L, in which FLuc is used as the reporter protein. TK6 cells are transfected with a plasmid having a GD532-L or GD532-GLuc expression cassette by electroporation and clones bearing the reporter plasmids are selected.
The inventors wished to determine which of the GLuc and FLuc reporter proteins were most suitable for use in a genotoxicity assay. To determine this, they performed a series of experiments in which cells having the GD532-L or GD532-GLuc expression cassette were exposed to a test compound, and the activity of GLuc and FLuc measured and compared to the standard GADD45α-GFP expression cassette.
FLuc cells were combined with a several known genotoxins and non-genotoxins. FLuc expression was measured at 8, 16, 24, 32, 40 and 48 hours after treatment.

[3] = tested on: GD532-GLuc reporter in GLuc-T01 cells with S9 liver extract; assay: S9 metabolic activation GLuc assay with thiazole orange cell number estimation; conditions: TO cell number estimation, threshold 1.5, FIG. 7B
Description: In an S9-incorporating assay, GLuc-T01 cells are exposed to the test compound in the presence of the S9 extract in a mixture with enzyme co-factors (for example, glucose-6-phosphate (2.5 mM) and β-nicotinamide adenine dinucleotide phosphate (0.5 mM)). The S9 extract is normally used at a final concentration of 1% (v/v) in the assay microplate. […] The conditions of an S9-incorporating assay (for example, time of exposure and type of S9—animal species, chemical induction of hepatic enzymes etc.) may be varied according to experimental requirements.
The cell stain used in the adapted protocol is thiazole orange (TO) which is a cyanine dye that binds to nucleic acids. The binding of TO to DNA and RNA greatly enhances its fluorescence intensity, allowing for its detection without the need to wash away background, unbound TO.
The method requires GLuc-T01 cells to be lysed to allow access to the DNA of all cells present in the microplate well.
In the microplate, the final concentration of TO is 15 μM and for Triton-X100 it is 1% (v/v).
Where the assay includes S9 liver extracts, the genotoxic threshold is set at a relative GLuc induction of 1.5 (i.e. an 50% increase).

[4] = tested on: GADD45α-GFP expression cassette in TK6 cells; assay: GADD45α-GFP reporter assay (GreenScreen HC); format: cell-based, human; conditions: FIG. 3, 24 hour timeframe
Description: Studying FIG. 3 allows for the construction of a number of hypotheses regarding the stability of the reporter proteins and how this will affect the GreenScreen HC assay. The FLuc protein has been reported to have a half-life within cells of ˜3 hours. In comparison, GFP has been reported to have a half-life within cells of ˜26 hours. In this respect GFP can be considered to give more of a cumulative measure of GADD45α induction whilst FLuc will report only on recent GADD45 induction.

[5] = TK6 with GD532-GLuc, 48 hour endpoint
[6] = lowest test compound concentration that produces a relative GLuc induction greater than the 1.8 threshold

Structure (SMILES)	GLuc Genotox Result [1]	GLuc Genotox LEC ([1]; human, 48 h) [µg/mL]	other results
Nc1ncn([C@@H]2O[C@H](CO)[C@@H](O)[C@H]2O)c(=O)n1 [5-Azacytidine]	+++	0.38	
O=c1[nH]cc(F)c(=O)[nH]1 [5-Fluorouracul]			genotoxicity outcome in the GLuc assay (in words) [1, 5]: correctly identified; GLuc Genotox LEC [1, 6]: 0.63 µg/mL; detection as genotoxic with FLuc at the 48 hour endpoint [2]: would not have been detected as genotoxic
Nc1cc2c3ccccc3ccc2c2ccccc12 [6-Aminochrysene]			detection of pro-genotoxin in S9 GLuc assay [3]: detected
C[C@@]1(CO)[C@H](O)CC[C@@]2(C)[C@H]1CC[C@H]1C[C@@H]3C[C@@]12CC[C@]3(O)CO [Aphidicolin]			GLuc Genotox LEC [1, 6]: 0.13 µg/mL
CCCCNC(=O)n1c(NC(=O)OC)nc2ccccc21 [Benomyl]	+++	1.81	
CC[C@@]1(O)C(=O)OCc2c1cc1n(c2=O)Cc2cc3ccccc3nc2-1 [Camptothecin]			GLuc Genotox LEC [1, 6]: 0.08 µg/mL
COc1cc2c(c(OC)c1OC)-c1ccc(OC)c(=O)cc1[C@@H](NC(C)=O)CC2 [Colchicine]			genotoxicity outcome in the GLuc assay (in words) [1, 5]: correctly identified; detection as genotoxic with FLuc at the 48 hour endpoint [2]: would not have been detected as genotoxic
COc1cc([C@@H]2c3cc4c(cc3[C@@H](O[C@@H]3O[C@@H]5CO[C@@H](C)O[C@H]5[C@H](O)[C@H]3O)[C@H]3COC(=O)[C@H]23)OCO4)cc(OC)c1O [Etoposide]	+++		genotoxicity outcome in the GLuc assay (in words) [1]: positive
COC1=CC(=O)C[C@@H](C)[C@]12Oc1c(Cl)c(OC)cc(OC)c1C2=O [Griseofulvin]	+++		
OO [Hydrogen Peroxide]	+++	5.00	
NC(=O)NO [Hydroxyurea]		4.75	
COS(C)(=O)=O [Methyl methanesulfonate]	+++	6.25	
CN(N=O)C(N)=O [N-Nitroso-N-methylurea]			GLuc Genotox LEC [1, 6]: 8.05 µg/mL; concentration at which GADD45α induction (GFP signal) peaks [4]: at least 258 μg/ml; test concentration at which the highest relative induction is seen ([2]; FLuc reporter, FIG. 3, 24 hour timeframe): 32 µg/mL; concentrations that cause significant cell death ([2]; TK6 reporter cells, FIG. 3, explains decrease in FLuc signal): greater than 32 μg/ml
CC(=O)O[C@H]1C(=O)[C@@]2(C)[C@H]([C@H](OC(=O)c3ccccc3)[C@]3(O)C[C@H](OC(=O)[C@H](O)[C@@H](NC(=O)c4ccccc4)c4ccccc4)C(C)=C1C3(C)C)[C@]1(OC(C)=O)CO[C@@H]1C[C@@H]2O [Paclitaxel (Taxol), Paclitaxel]	+++	0.03	
CCc1nc(N)nc(N)c1-c1ccc(Cl)cc1 [Pyrimethamine]	+++	0.39	
CC[C@]1(O)C[C@H]2CN(CCc3c([nH]c4ccccc34)[C@@](C(=O)OC)(c3cc4c(cc3OC)N(C=O)[C@H]3[C@@](O)(C(=O)OC)[C@H](OC(C)=O)[C@]5(CC)C=CCN6CC[C@]43[C@@H]65)C2)C1 [Vincristine Sulphate]	+++	0.0008	
OCCO [ethylene glycol]			genotoxicity outcome in the GLuc assay (in words) [1, 5]: correctly identified
